The subject of experiment [1] is caspase 3 activity in SUM149PT cells. Briefly: Caspase-3 colorimetric assay in SUM149PT cells. The format is cell-based, human. Conditions: 8 hours, compared with non-treated or iPep624ΔHEX-treated cells. From the text: (§1) The EN1-iPeps and iPep controls were first tested in SUM149PT cells carrying high EN1 expression. Cells were first treated with a full-length 29-mer peptide (iPep624) comprising the N-terminal, less conserved amino acid sequences, the hexamotif, and the C-terminal tail. As a control, the inventors generated the iPep624ΔHEX in which the hexamotif was mutated from the wild type (wt) WPAWVY (SEQ ID NO: 13) to the GAAGAG (SEQ ID NO: 15) sequence. These mutations were expected to dramatically abolish the activity of the peptide. Both peptides were included in the culture medium of the basal cancer cells in increasing (0-100 μM) concentrations and incubated for 8 hours at 37° C. Treated cells were first analyzed using the Cell Titer Glo assay, which monitors metabolic viability. […] This calculated value of IC50 is in the range of concentrations observed with other peptides delivered with CPPs.
Detection of apoptosis was performed with a Caspase-3 colorimetric assay (Sigma-Aldrich, St Louis, Mo.) according to the manufacturer's instructions.

For experiment [2], the system named is HUMEC. Briefly: Cell Titer Glo cell viability assay, breast cancer cell line panel. The format is cell-based. The conditions noted are these: 8 hours. The method, then:
(§2) To test the specificity of the EN1-iPep in cell lines expressing EN1, the inventors delivered the iPeps into a panel of breast cancer cell lines expressing different amounts of EN1.
(§3) All peptides were synthetized at the UNC High-Throughput Peptide Synthesis and Array Facility at UNC. Taxol, Rotenone and Halofuginone (Sigma-Aldrich, St Louis, Mo.) were dissolved in DMSO. A total of […] or 1×10^3 breast cells for peptide and drug treatment respectively, were seeded in 96-well plates. Cells were exposed for 8 hours to the peptide and 48 to 72 hours for drug treatment. The cell viability after peptide/drug treatment was assayed with the Cell Titer Glo (CTG) assay (Promega, Madison, Wis., USA).
For orientation: In ATP-based viability assays light output follows the ATP content of the culture.

Experiment [3] has as its system SUM102. The experiment is described as above. It counts as cell-based. The conditions noted are these: SUM102, 8 hours. The method, then:
as §2, §3

Experiment [4] has as its system MCF7. The description is as above. The format is cell-based. The conditions noted are these: MCF7, 8 hours. The method, then:
as §2, §3

For experiment [5], the system named is SUM229. Described as above. The format is cell-based. The conditions noted are these: SUM229, 8 hours. The method, then:
as §2, §3

The subject of experiment [6] is SUM159PT. Described as above. It counts as cell-based. The conditions noted are these: 8 hours. The method, then: as §2, §3
For experiment [7], the system named is MDA-MB-231. The description is as above. The conditions noted are these: MDA-MB-231, 8 hours. It counts as cell-based. The method, then: as §2, §3
Experiment [8] deals with SUM149PT cells. The experiment in a line: cells. The format is cell-based, human.
Description: as §1, §3

Experiment [9] concerns mRNA levels of COLA1, COLA2, S1004A and DDIT3 (CHOP). The experiment in a line: Real time PCR of downstream effectors of EPRS in SUM149PT cells. It counts as cell-based, human. From the text: FIG. 6 EN1-Ipeps binds the endogenous Glutamyl-Prolyl tRNA synthetase (EPRS) target and regulates downstream EPRS effectors in breast cancer cells. (a) EN1-iPep624 (SEQ ID NO: 5) captures and binds EPRS from total extracts of SUM149-PT cells. Affinity-capture immunoprecipitation and western blot detection of EPRS using biotinylated iPeps as bait, and total extracts of SUM149-PT cells. Same input loading of extract is shown in the SDS-PAGE gel on the left. […] The immunoprecipitations were done at least three times and averages and standard errors between experiments are indicated (p<0.01*, p<0.001**). (b) Full length EN1 binds the endogenous EPRS in MDA-MB-231 and SUM149PT cells. Total extracts of MDA-MB-231 and SUM149PT expressing either a full length EN1 cDNA engineered with a N-terminal FLAG tag or an empty-vector control were processed by immunoprecipitation with an anti-FLAG antibody. Immunoprecipitated complexes were blotted with an EPRS-specific antibody to detect endogenous EPRS. The same amount of loaded extracts (INPUT) is shown with anti-tubulin as endogenous control. The enrichment of the immunoprecipitated products was determined by quantification of the bands by densitometry as described above, and data was normalized to iPep624ΔHEX (SEQ ID NO: 18) control. […] Cell viability was determined by a Cell Titer Glo assay and IC50 concentrations determined as described in FIG. 5. […]
(In general: Quantitative PCR measures a nucleic acid by following its amplification.)

In general, IC50 refers to the concentration that inhibits the measured activity by half. A low value points to higher potency.

Ends that are not written are not given here.

Regarding KKKRKVTDSQQPLVWPAWVYCTRYSDRPS [iPep624], in experiment [1], the “caspase 3 activity” value is reported as “significantly higher”. Besides, the cell viability entry in [2] is “no effect on cell viability”; in experiment [3], “decreased cell viability”; in experiment [4], “no effect on cell viability”; in experiment [5], “decreased cell viability”; in experiment [6], “decreased cell viability”; in experiment [7] it was “no effect on cell viability”. Further, in experiment [8] (SUM149PT, 0-100 μM peptide, 8 hours), the cell viability result is “decreased cell viability”. In experiment [8] (8 h), this sequence showed an IC50 of 17.5 µM. In addition, the sensitization to halofuginone result in experiment [8] (SUM149PT, co-treatment with 500 nM iPep) is “sensitized even more the basal-like breast cancer cells to halofuginone”. For the same sequence, the “breast cancer cell death” value in experiment [8] (SUM149PT, single agent) is reported as “induced very potent breast cancer cell death”. In experiment [9] (15 μM active iPep over control), the “DDIT3 mRNA in EN1-overexpressing cells” value is “significantly up-regulated”. Besides, the “up-regulation of COLA1, COLA2 and S1004A mRNA in EN1-overexpressing cells” value in experiment [9] (15 μM active peptide) is “significantly reverted”.

Source of the values: US10201610B2, “Interference peptides and use thereof” (The University of Western Australia, priority 2014, dated 2019).
